According to patent publication US7469185B2, “Primary rat hepatocyte toxicity modeling” (Ocimum Biosolutions, Inc., priority 2002, dated 2008):

Columns and labels:
dogs = conditions: dog, in vivo; cited from earlier work
primary rat hepatocytes = test: Microarray gene expression analysis (Affymetrix rat array) of toxin-exposed hepatocytes, with linear discriminant score; format: cell-based; conditions: 24 hrs
Description: Identification of toxicity markers was performed by microarray analysis and by the AlamarBlue® assay, a classical measure of cytotoxicity. The AlamarBlue® assay was performed in triplicate.
The source of the primary rat hepatocytes was Sprague Dawley Outbred CDs Rats (CRL:CD®[SD] IGS BR, Charles River Laboratories). […] Primary rat hepatocytes were received the day after the cells were removed from the animals. After arrival, the cells, the cells were incubated overnight (˜15 hrs) before the toxin was added to the cultures. […] Toxin or vehicle was administered to hepatocyte cultures as follows. For each treatment, i.e., vehicle alone, vehicle+toxin at low dose, or vehicle+toxin at high dose, cells were harvested after 3, 6 and 24-hour incubations with the toxin solution or with the vehicle.
More than 10^7 cells are typically prepared for each sample. RNA was collected at 3, 6 and 24 hours following addition of the toxin according to the following procedure.
Each flask contained ˜10-20 million cells. The contents of each flask were mixed vigorously for one minute with a vortex mixer and then aspirated up and down 5 times with a pipette. The contents of each flask (˜12 ml each) was collected into a 50 ml conical polypropylene tissue culture tube (Falcon), snap frozen in liquid nitrogen and stored at ≦−86° C.
Microarray sample preparation was conducted with minor modifications, following the protocols set forth in the Affymetrix GeneChip® Expression Analysis Manual. Frozen cells were ground to a powder using a Spex Certiprep 6800 Freezer Mill. Total RNA was extracted with Trizol (GibcoBRL) utilizing the manufacturer's protocol. […] Double stranded cDNA was generated from mRNA using the SuperScript Choice system (GibcoBRL). First strand cDNA synthesis was primed with a T7-(dT24) oligonucleotide. The cDNA was phenol-chloroform extracted and ethanol precipitated to a final concentration of […]. From 2 μg of cDNA, cRNA was synthesized using Ambion's T7 MegaScript in vitro Transcription Kit.
To biotin label the cRNA, nucleotides Bio-11-CTP and Bio-16-UTP (Enzo Diagnostics) were added to the reaction. Following a 37° C. incubation for six hours, impurities were removed from the labeled cRNA following the RNeasy Mini kit protocol (Qiagen). cRNA was fragmented (fragmentation buffer consisting of 200 mM Tris-acetate, pH 8.1, 500 mM KOAc, 150 mM MgOAc) for thirty-five minutes at 94° C. Following the Affymetrix protocol, 55 μg of fragmented cRNA was hybridized on the Affymetrix rat array set for twenty-four hours at 60 rpm in a 45° C. hybridization oven. The chips were washed and stained with Streptavidin Phycoerythrin (SAPE) (Molecular Probes) in Affymetrix fluidics stations. To amplify staining, SAPE solution was added twice with an anti-streptavidin biotinylated antibody (Vector Laboratories) staining step in between. Hybridization to the probe arrays was detected by fluorometric scanning (Hewlett Packard Gene Array Scanner). Data was analyzed using Affymetrix GeneChip® version 3.0 and Expression Data Mining Tool (EDMT) software (version 1.0), S-Plus, and the GeneExpress® software system.
Each gene is identified by its Gene Logic identification number and can be cross-referenced to a gene name and representative SEQ ID NO. in Table 1.

Cl.Nc1nc2c(Cc3ccsc3)c[nH]c2c(=O)[nH]1.O [CI-1000, 4H-pyrrolo:3,2-d:pyrimidin-4-one, 2-amino-3,5-dihydro-7-(3-thienylmethyl)-monohydrochloride monohydrate]
serum ALT levels (dogs): increased | Mean Tox (primary rat hepatocytes; GLGC ID NO. 108): 773.3800 | Mean Tox (primary rat hepatocytes; GLGC ID NO. 573): 8.6367 | Mean Tox (primary rat hepatocytes; GLGC ID NO. 574): 4432.0900 | Mean Tox (primary rat hepatocytes; GLGC ID NO. 798): 128.0433 | Mean Tox (primary rat hepatocytes; GLGC ID NO. 1348): 71.9967 | Mean Tox (primary rat hepatocytes; GLGC ID NO. 1378): 98.1567 | Mean Tox (primary rat hepatocytes; GLGC ID NO. 1570): 1078.9433 | Mean Tox (primary rat hepatocytes; GLGC ID NO. 1571): 1228.2500 | Mean Tox (primary rat hepatocytes; GLGC ID NO. 1728): 390.6900 | Mean Tox (primary rat hepatocytes; GLGC ID NO. 1798): 347.1167 | Mean Tox (primary rat hepatocytes; GLGC ID NO. 2250): 3776.5600 | Mean Tox (primary rat hepatocytes; GLGC ID NO. 2267): 415.0967 | Mean Tox (primary rat hepatocytes; GLGC ID NO. 2382): 33.0133 | Mean Tox (primary rat hepatocytes; GLGC ID NO. 2909): 422.4233 | Mean Tox (primary rat hepatocytes; GLGC ID NO. 2911): 39.1667 | Mean Tox (primary rat hepatocytes; GLGC ID NO. 2933): 16.1500 | Mean Tox (primary rat hepatocytes; GLGC ID NO. 3246): 236.8700 | Mean Tox (primary rat hepatocytes; GLGC ID NO. 3501): 61.2333 | Mean Tox (primary rat hepatocytes; GLGC ID NO. 3631): 235.6533 | Mean Tox (primary rat hepatocytes; GLGC ID NO. 4636): 424.3433 | Mean Tox (primary rat hepatocytes; GLGC ID NO. 4650): 398.0633 | Mean Tox (primary rat hepatocytes; GLGC ID NO. 5044): 161.4467 | Mean Tox (primary rat hepatocytes; GLGC ID NO. 5258): 68.1000 | Mean Tox (primary rat hepatocytes; GLGC ID NO. 5496): 49.0667 | Mean Tox (primary rat hepatocytes; GLGC ID NO. 5615): 127.1533 | Mean Tox (primary rat hepatocytes; GLGC ID NO. 5899): 33.5000 | Mean Tox (primary rat hepatocytes; GLGC ID NO. 6033): 72.8967 | Mean Tox (primary rat hepatocytes; GLGC ID NO. 6224): 150.6700 | Mean Tox (primary rat hepatocytes; GLGC ID NO. 6291): 87.3167 | Mean Tox (primary rat hepatocytes; GLGC ID NO. 6343): 51.9167 | Mean Tox (primary rat hepatocytes; GLGC ID NO. 6717): 59.7300 | Mean Tox (primary rat hepatocytes; GLGC ID NO. 6996): 165.6633 | Mean Tox (primary rat hepatocytes; GLGC ID NO. 7926): 49.1133 | Mean Tox (primary rat hepatocytes; GLGC ID NO. 8395): 10.1200 | Mean Tox (primary rat hepatocytes; GLGC ID NO. 9309): 142.4767 | Mean Tox (primary rat hepatocytes; GLGC ID NO. 9500): 66.0900 | Mean Tox (primary rat hepatocytes; GLGC ID NO. 9845): 126.4867 | Mean Tox (primary rat hepatocytes; GLGC ID NO. 10138): 43.7667 | Mean Tox (primary rat hepatocytes; GLGC ID NO. 10544): 702.1267 | Mean Tox (primary rat hepatocytes; GLGC ID NO. 10920): −1.0367 | Mean Tox (primary rat hepatocytes; GLGC ID NO. 10986): 12.0067 | Mean Tox (primary rat hepatocytes; GLGC ID NO. 11610): 570.7167 | Mean Tox (primary rat hepatocytes; GLGC ID NO. 12563): 634.3933 | Mean Tox (primary rat hepatocytes; GLGC ID NO. 12580): 37.5533 | Mean Tox (primary rat hepatocytes; GLGC ID NO. 13169): 173.3367 | Mean Tox (primary rat hepatocytes; GLGC ID NO. 13283): 44.9933 | Mean Tox (primary rat hepatocytes; GLGC ID NO. 13346): 474.6867 | Mean Tox (primary rat hepatocytes; GLGC ID NO. 13563): 194.5233 | Mean Tox (primary rat hepatocytes; GLGC ID NO. 13614): 51.4367 | Mean Tox (primary rat hepatocytes; GLGC ID NO. 13919): 64.7367 | Mean Tox (primary rat hepatocytes; GLGC ID NO. 14521): 198.1933 | Mean Tox (primary rat hepatocytes; GLGC ID NO. 14934): 171.4667 | Mean Tox (primary rat hepatocytes; GLGC ID NO. 15087): 279.6733 | Mean Tox (primary rat hepatocytes; GLGC ID NO. 15205): 136.0033 | Mean Tox (primary rat hepatocytes; GLGC ID NO. 15403): 546.1933 | Mean Tox (primary rat hepatocytes; GLGC ID NO. 15663): 575.4367 | Mean Tox (primary rat hepatocytes; GLGC ID NO. 15685): 1989.9867 | Mean Tox (primary rat hepatocytes; GLGC ID NO. 15925): 154.8867 | Mean Tox (primary rat hepatocytes; GLGC ID NO. 16006): 341.7733 | Mean Tox (primary rat hepatocytes; GLGC ID NO. 16024): 520.0167 | Mean Tox (primary rat hepatocytes; GLGC ID NO. 16025): 313.1433 | Mean Tox (primary rat hepatocytes; GLGC ID NO. 16164): 1717.2267 | Mean Tox (primary rat hepatocytes; GLGC ID NO. 16947): 147.5900 | Mean Tox (primary rat hepatocytes; GLGC ID NO. 17115): −3.3700 | Mean Tox (primary rat hepatocytes; GLGC ID NO. 17365): 113.6667 | Mean Tox (primary rat hepatocytes; GLGC ID NO. 17549): 1296.6000 | Mean Tox (primary rat hepatocytes; GLGC ID NO. 17956): 167.2833 | Mean Tox (primary rat hepatocytes; GLGC ID NO. 18278): 30.2633 | Mean Tox (primary rat hepatocytes; GLGC ID NO. 18383): 210.0600 | Mean Tox (primary rat hepatocytes; GLGC ID NO. 18498): 412.3833 | Mean Tox (primary rat hepatocytes; GLGC ID NO. 18524): 233.6633 | Mean Tox (primary rat hepatocytes; GLGC ID NO. 18727): 1450.8800 | Mean Tox (primary rat hepatocytes; GLGC ID NO. 18777): 195.2400 | Mean Tox (primary rat hepatocytes; GLGC ID NO. 19371): 24.8700 | Mean Tox (primary rat hepatocytes; GLGC ID NO. 20586): 44.1067 | Mean Tox (primary rat hepatocytes; GLGC ID NO. 20664): 373.3533 | Mean Tox (primary rat hepatocytes; GLGC ID NO. 20701): 78.4500 | Mean Tox (primary rat hepatocytes; GLGC ID NO. 20755): 2569.4500 | Mean Tox (primary rat hepatocytes; GLGC ID NO. 20801): 441.4867 | Mean Tox (primary rat hepatocytes; GLGC ID NO. 20939): 971.5300 | Mean Tox (primary rat hepatocytes; GLGC ID NO. 21064): 291.1633 | Mean Tox (primary rat hepatocytes; GLGC ID NO. 21154): 116.8600 | Mean Tox (primary rat hepatocytes; GLGC ID NO. 21747): 330.9267 | Mean Tox (primary rat hepatocytes; GLGC ID NO. 21794): 5.9200 | Mean Tox (primary rat hepatocytes; GLGC ID NO. 22102): 633.5467 | Mean Tox (primary rat hepatocytes; GLGC ID NO. 22310): 316.3067 | Mean Tox (primary rat hepatocytes; GLGC ID NO. 22576): 484.4533 | Mean Tox (primary rat hepatocytes; GLGC ID NO. 22915): 409.8567 | Mean Tox (primary rat hepatocytes; GLGC ID NO. 22994): 83.8300 | Mean Tox (primary rat hepatocytes; GLGC ID NO. 23166): 758.8567 | Mean Tox (primary rat hepatocytes; GLGC ID NO. 23250): 317.7900 | Mean Tox (primary rat hepatocytes; GLGC ID NO. 23521): 60.4533 | Mean Tox (primary rat hepatocytes; GLGC ID NO. 23630): 789.8200 | Mean Tox (primary rat hepatocytes; GLGC ID NO. 23738): 290.9200 | Mean Tox (primary rat hepatocytes; GLGC ID NO. 23860): 310.3067 | Mean Tox (primary rat hepatocytes; GLGC ID NO. 24501): 2075.2267 | Mean Tox (primary rat hepatocytes; GLGC ID NO. 24554): 25.3833 | Mean Tox (primary rat hepatocytes; GLGC ID NO. 24814): 389.9067 | Mean Tox (primary rat hepatocytes; GLGC ID NO. 25594): 700.5833 | Mean Tox (primary rat hepatocytes; GLGC ID NO. 26184): 126.0933
